Source: PubChem BioAssay (NCI)
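How tested: cells in 96-well plates exposed to compound for 48 hours at five concentrations. Here, GI50 denotes the concentration required for 50% inhibition of growth. TGI: concentration producing complete growth inhibition.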

Tests used:
Assay in all cases: NCI anticancer screen, dose series, 48 h
[1] = system: UO-31 renal
[2] = system: HT29 colon
[3] = system: NCI-H23 lung
[4] = system: MDA-MB-435
[5] = system: NCI/ADR-RES ovarian
[6] = system: HCT-15 colon
[7] = system: IGROV1 ovarian
[8] = system: SF-539 CNS
[9] = system: KM12 colon
[10] = system: UACC-62 melanoma
[11] = system: SK-MEL-28 melanoma
[12] = system: MCF7 breast
[13] = system: SK-OV-3 ovarian
[14] = system: OVCAR-8 ovarian
[15] = system: DU-145 prostate
[16] = system: CCRF-CEM leukemia
[17] = system: SR leukemia
[18] = system: UACC-257 melanoma
[19] = system: COLO 205 colon
[20] = system: EKVX NSCLC
[21] = system: NCI-H226 lung
[22] = system: ACHN renal
[23] = system: OVCAR-3 ovarian
[24] = system: SF-295 CNS
[25] = system: OVCAR-5 ovarian
[26] = system: SK-MEL-2 melanoma
[27] = system: A498 renal
[28] = system: CAKI-1 renal
[29] = system: TK-10 renal
[30] = system: HS 578T breast
[31] = system: A549 NSCLC
[32] = system: NCI-H522 lung
[33] = system: M14 melanoma
[34] = system: T-47D breast
[35] = system: PC-3 prostate
[36] = system: BT-549 breast
[37] = system: OVCAR-4 ovarian
[38] = system: HOP-62 NSCLC
[39] = system: RPMI-8226 leukemia
[40] = system: SNB-19 CNS
[41] = system: HOP-92 NSCLC
[42] = system: MALME-3M melanoma
[43] = system: U251 CNS
[44] = system: SF-268 CNS
[45] = system: NCI-H460 lung
[46] = system: HCT-116 colon
[47] = system: SW-620 colon
[48] = system: MOLT-4 leukemia
[49] = system: SNB-75 CNS
[50] = system: SN12C renal
[51] = system: HL-60(TB) leukemia
[52] = system: RXF 393 renal
[53] = system: 786-0 renal
[54] = system: HCC-2998 colon
[55] = system: SK-MEL-5 melanoma
[56] = system: K-562 leukemia

## CCCCCCCCCCCCCCCC[N+](C)(C)Cc1ccc(F)cc1
[1]
  TGI: 31.1 µM
[2]
  TGI: 5.78 µM
[3]
  TGI: 14.2 µM
[4]
  TGI: 3.99 µM
[5]
  TGI: 57.1 µM
[6]
  TGI: 34.9 µM
[7]
  TGI: 1.57 µM
[8]
  TGI: 2.31 µM
[9]
  TGI: 2.33 µM
[10]
  TGI: 4.45 µM
[11]
  TGI: 15.1 µM
[12]
  TGI: 3.67 µM
[13]
  TGI: 6.68 µM
[14]
  TGI: 3.11 µM
[15]
  TGI: 20.8 µM
[16]
  TGI: 3.28 µM
[17]
  TGI: 4.23 µM
[18]
  TGI: 4.92 µM
[19]
  TGI: 2.87 µM
[20]
  TGI: 6.01 µM
[21]
  TGI: 9.58 µM
[22]
  TGI: 10.1 µM
[23]
  TGI: 5.49 µM
[24]
  TGI: 7.69 µM
[25]
  TGI: 3.79 µM
[26]
  TGI: 2.82 µM
[27]
  TGI: 88.7 µM
[28]
  TGI: 15.6 µM
[29]
  TGI: 4.8 µM
[30]
  TGI: 3.44 µM
[31]
  TGI: 11.3 µM
[32]
  TGI: 2.03 µM
[33]
  TGI: 3.05 µM
[34]
  TGI: 25.9 µM
[35]
  TGI: 2.51 µM
[36]
  TGI: 8.87 µM

## N=C(N)c1ccc(-c2ccc(-c3cccs3)o2)cc1
[1]
  GI50: 1.9 µM
  TGI: 3.74 µM
[2]
  GI50: 1.89 µM
  TGI: 3.7 µM
[37]
  GI50: 2.35 µM
  TGI: 5.72 µM
[38]
  GI50: 2.04 µM
  TGI: 4.32 µM
[3]
  GI50: 3.63 µM
  TGI: 13.2 µM
[39]
  GI50: 2.12 µM
  TGI: 4.98 µM
[40]
  GI50: 2.43 µM
  TGI: 7.81 µM
[4]
  GI50: 1.76 µM
  TGI: 3.39 µM
[5]
  GI50: 2.88 µM
  TGI: 7.63 µM
[6]
  GI50: 1.86 µM
  TGI: 3.8 µM
[41]
  GI50: 1.4 µM
  TGI: 3.1 µM
[7]
  GI50: 1.92 µM
  TGI: 3.83 µM
[8]
  GI50: 1.68 µM
  TGI: 3.14 µM
[42]
  GI50: 1.91 µM
  TGI: 3.42 µM
[10]
  GI50: 1.75 µM
  TGI: 3.35 µM
[11]
  GI50: 1.71 µM
  TGI: 3.11 µM
[12]
  GI50: 1.69 µM
  TGI: 3.29 µM
[43]
  GI50: 1.76 µM
  TGI: 3.37 µM
[13]
  GI50: 2.4 µM
  TGI: 5.77 µM
[15]
  GI50: 2.91 µM
  TGI: 7.31 µM
[16]
  GI50: 2.33 µM
  TGI: 5.9 µM
[44]
  GI50: 2.19 µM
  TGI: 5.17 µM
[17]
  GI50: 2.99 µM
  TGI: 8.54 µM
[45]
  GI50: 1.79 µM
  TGI: 3.41 µM
[18]
  GI50: 1.98 µM
  TGI: 3.63 µM
[46]
  GI50: 1.83 µM
  TGI: 3.23 µM
[47]
  GI50: 1.77 µM
  TGI: 3.37 µM
[19]
  GI50: 1.91 µM
  TGI: 3.49 µM
[21]
  GI50: 2.07 µM
  TGI: 5.13 µM
[22]
  GI50: 1.86 µM
  TGI: 3.51 µM
[23]
  GI50: 2.25 µM
  TGI: 4.92 µM
[25]
  GI50: 2.02 µM
  TGI: 6.2 µM
[26]
  GI50: 2.19 µM
  TGI: 4.04 µM
[27]
  GI50: 1.8 µM
  TGI: 3.86 µM
[28]
  GI50: 2.14 µM
  TGI: 5.2 µM
[29]
  GI50: 1.95 µM
  TGI: 3.44 µM
[30]
  GI50: 2.14 µM
  TGI: 5.25 µM
[48]
  GI50: 2.34 µM
  TGI: 4.89 µM
[49]
  GI50: 1.71 µM
  TGI: 3.5 µM
[32]
  GI50: 2.01 µM
  TGI: 3.89 µM
[33]
  GI50: 1.9 µM
  TGI: 3.39 µM
[50]
  GI50: 1.97 µM
  TGI: 4.38 µM
[51]
  GI50: 1.82 µM
  TGI: 4.11 µM
[52]
  GI50: 1.69 µM
  TGI: 3.46 µM
[53]
  GI50: 1.89 µM
  TGI: 3.44 µM
[34]
  GI50: 2.17 µM
  TGI: 4.88 µM
[35]
  GI50: 2.13 µM
  TGI: 5.56 µM
[54]
  GI50: 1.87 µM
  TGI: 3.41 µM
[55]
  GI50: 1.65 µM
  TGI: 3.02 µM
[56]
  GI50: 2.27 µM
  TGI: 5.72 µM
[36]
  GI50: 2.05 µM
  TGI: 4.02 µM
